Data on six molecules can be found in article PMC8887546, “Design and Synthesis of Brain Penetrant Glycopeptide Analogues of PACAP With Neuroprotective Potential for Traumatic Brain Injury and Parkinsonism” (Frontiers in drug discovery, 2022).

Some results are limits rather than exact numbers.

Common to all, as to format: cell-based
One assay addresses T1, human VPAC1 receptor (Homo sapiens, UniProt P32241).
T1 construct: expressed in transfected cells; host or cells: CHO cells (G418 selection)
T1 sequence (P32241 31-457): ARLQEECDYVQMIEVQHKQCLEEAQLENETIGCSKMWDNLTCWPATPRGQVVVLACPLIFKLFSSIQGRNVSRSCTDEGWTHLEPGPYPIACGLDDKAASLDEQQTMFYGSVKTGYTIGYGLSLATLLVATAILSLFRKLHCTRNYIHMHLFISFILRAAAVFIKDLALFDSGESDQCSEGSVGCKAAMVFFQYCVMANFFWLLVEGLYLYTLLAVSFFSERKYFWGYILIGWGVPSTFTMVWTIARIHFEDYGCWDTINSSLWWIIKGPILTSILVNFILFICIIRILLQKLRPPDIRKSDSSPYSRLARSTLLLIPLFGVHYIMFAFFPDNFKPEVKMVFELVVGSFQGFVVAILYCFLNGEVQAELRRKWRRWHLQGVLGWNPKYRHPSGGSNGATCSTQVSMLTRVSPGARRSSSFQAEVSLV
Nature of the assay: cAMP stimulation in CHO cells expressing VPAC1. Particulars: for Emax: CHO, read-out: VPAC1 Emax; for Receptor selectivity ratio VPAC1/PAC1: ratio of cAMP EC50 values; for EC50: read-out: VPAC1 EC50.

The next assay has as its target T2, human VPAC2 receptor (Homo sapiens, UniProt P41587).
T2 construct: expressed in transfected cells; host or cells: CHO cells (G418 selection)
T2 sequence (P41587 24-438): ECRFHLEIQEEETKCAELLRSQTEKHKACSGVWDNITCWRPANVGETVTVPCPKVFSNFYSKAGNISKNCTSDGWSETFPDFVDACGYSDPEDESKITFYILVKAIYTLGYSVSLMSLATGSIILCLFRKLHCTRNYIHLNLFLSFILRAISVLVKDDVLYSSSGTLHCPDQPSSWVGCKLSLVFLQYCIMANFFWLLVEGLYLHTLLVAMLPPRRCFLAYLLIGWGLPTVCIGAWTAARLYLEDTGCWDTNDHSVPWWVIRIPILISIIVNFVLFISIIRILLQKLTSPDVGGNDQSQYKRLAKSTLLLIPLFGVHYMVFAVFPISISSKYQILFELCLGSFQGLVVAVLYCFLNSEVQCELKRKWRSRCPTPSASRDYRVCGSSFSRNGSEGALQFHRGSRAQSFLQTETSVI
Nature of the assay: cAMP stimulation in CHO cells expressing VPAC2. To be noted: for Emax: CHO; for Receptor selectivity ratio VPAC2/PAC1 / Receptor selectivity ratio VPAC2/VPAC1: ratio of cAMP EC50 values. Summed up:
(§1)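 Serum-starved CHO cells expressing human receptors were pre-treated 20 min with 500 μM IBMX, then exposed to agonist concentration curves for 10 min in 500 μM IBMX. cAMP quantified by competition with bovine PKA and ^3H-cAMP (1 h, room temperature), scintillation read.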

A further assay deals with T3, human PAC1 receptor (Homo sapiens, UniProt P41586).
T3 construct: expressed in transfected cells; host or cells: CHO cells (G418 selection)
T3 sequence (P41586 21-468): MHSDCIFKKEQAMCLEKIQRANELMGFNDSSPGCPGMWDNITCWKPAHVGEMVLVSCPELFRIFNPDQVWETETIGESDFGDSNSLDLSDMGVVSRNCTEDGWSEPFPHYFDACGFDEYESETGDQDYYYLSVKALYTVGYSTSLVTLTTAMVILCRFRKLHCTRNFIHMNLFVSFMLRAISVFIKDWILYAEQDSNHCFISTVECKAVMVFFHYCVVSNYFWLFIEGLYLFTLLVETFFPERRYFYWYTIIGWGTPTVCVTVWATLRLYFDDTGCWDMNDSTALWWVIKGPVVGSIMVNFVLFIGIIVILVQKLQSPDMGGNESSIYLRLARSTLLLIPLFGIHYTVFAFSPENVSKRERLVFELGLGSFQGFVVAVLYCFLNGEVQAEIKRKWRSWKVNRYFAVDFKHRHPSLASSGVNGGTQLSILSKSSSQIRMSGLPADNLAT
Nature of the assay: cAMP stimulation in CHO cells expressing PAC1. Particulars: for Emax: CHO. Summed up:
as §1

Usually Emax stands for the maximal effect, on the per cent scale that the assay sets. The term EC50 denotes the concentration that produces a half-maximal response. Regarding `CCC[C@H](NC(=O)[C@H](CCC(N)=O)NC(=O)[C@H](CCCCN)NC(=O)[C@H](CCCNC(=N)N)NC(=O)[C@H](Cc1ccc(O)cc1)NC(=O)[C@H](CCCNC(=N)N)NC(=O)[C@H](CO)NC(=O)[C@H](Cc1ccc(O)cc1)NC(=O)[C@H](CO)NC(=O)[C@H](CC(=O)O)NC(=O)[C@@H](NC(=O)[C@H](Cc1ccccc1)NC(=O)[C@@H](NC(=O)CN(C)C(=O)[C@H](CC(=O)O)NC(=O)[C@@H](CO)NC(=O)[C@@H](N)Cc1c[nH]cn1)[C@@H](C)CC)[C@@H](C)O)C(=O)N[C@@H](C)C(=O)N[C@H](C(=O)N[C@@H](CCCCN)C(=O)N[C@@H](CCCCN)C(=O)N[C@@H](Cc1ccc(O)cc1)C(=O)N[C@@H](CC(C)C)C(=O)N[C@@H](C)C(=O)N[C@@H](C)C(=O)N[C@H](C(=O)N[C@@H](CC(C)C)C(=O)N[C@@H](CO[C@@H]1O[C@H](CO)[C@@H](O)[C@H](O)[C@H]1O)C(N)=O)C(C)C)C(C)C` [CRA 3007], at human VPAC1 receptor, the Emax is 111%, the “Receptor selectivity ratio VPAC1/PAC1” value is reported as 5.50 and the EC50 was 165 nM. In addition, at human VPAC2 receptor, a half-maximal effect (EC50) was put at 706 nM, the Emax was determined as 70%, the “Receptor selectivity ratio VPAC2/PAC1” value came out at 23.53 and the “Receptor selectivity ratio VPAC2/VPAC1” value is reported as 4.28. In addition, at human PAC1 receptor, the EC50 came out at 30 nM and the Emax is 88%. In addition, on human PAC1 receptor (from cAMP EC50 values), the “Selectivity for PAC1 over VPAC1” value is recorded as approximately 5 fold and the “Selectivity for PAC1 over VPAC2” value is listed as approximately 24 fold.
For the molecule `CCC[C@H](NC(=O)[C@H](CCC(N)=O)NC(=O)[C@H](CCCCN)NC(=O)[C@H](CCCNC(=N)N)NC(=O)[C@H](Cc1ccc(O)cc1)NC(=O)[C@H](CCCNC(=N)N)NC(=O)[C@H](CO)NC(=O)[C@H](Cc1ccc(O)cc1)NC(=O)[C@H](CO)NC(=O)[C@H](CC(=O)O)NC(=O)[C@@H](NC(=O)[C@H](Cc1ccccc1)NC(=O)[C@@H](NC(=O)CCCCNC(=O)[C@H](CC(=O)O)NC(=O)[C@@H](CO)NC(=O)[C@@H](N)Cc1c[nH]cn1)[C@@H](C)CC)[C@@H](C)O)C(=O)N[C@@H](C)C(=O)N[C@H](C(=O)N[C@@H](CCCCN)C(=O)N[C@@H](CCCCN)C(=O)N[C@@H](Cc1ccc(O)cc1)C(=O)N[C@@H](CC(C)C)C(=O)N[C@@H](C)C(=O)N[C@@H](C)C(=O)N[C@H](C(=O)N[C@@H](CC(C)C)C(=O)N[C@@H](CO[C@@H]1O[C@H](CO)[C@@H](O)[C@H](O)[C@H]1O)C(N)=O)C(C)C)C(C)C` [CRA 3009], the Emax at human VPAC1 receptor amounted to 125%; on human VPAC2 receptor it was 55%; at human PAC1 receptor, 75%. Also, at human VPAC1 receptor, the “Receptor selectivity ratio VPAC1/PAC1” value is 1.86. The EC50 on human VPAC1 receptor is 767 nM; on human VPAC2 receptor, more than 2500 nM; at human PAC1 receptor, 412 nM.
In the case of `CCC[C@H](NC(=O)[C@H](CCC(N)=O)NC(=O)[C@H](CCCCN)NC(=O)[C@H](CCCNC(=N)N)NC(=O)[C@H](Cc1ccc(O)cc1)NC(=O)[C@H](CCCNC(=N)N)NC(=O)[C@H](CO)NC(=O)[C@H](Cc1ccc(O)cc1)NC(=O)[C@H](CO)NC(=O)[C@H](CC(=O)O)NC(=O)[C@@H](NC(=O)[C@H](Cc1ccccc1)NC(=O)[C@@H](NC(=O)CNC(=O)[C@H](CC(=O)O)NC(=O)[C@@H](CO)NC(=O)[C@@H](N)Cc1c[nH]cn1)C(C)C)[C@@H](C)O)C(=O)N[C@@H](C)C(=O)N[C@H](C(=O)N[C@@H](CCCCN)C(=O)N[C@@H](CCCCN)C(=O)N[C@@H](Cc1ccc(O)cc1)C(=O)N[C@@H](CC(C)C)C(=O)N[C@@H](C)C(=O)N[C@@H](C)C(=O)N[C@H](C(=O)N[C@@H](CC(C)C)C(=O)N[C@@H](CO[C@@H]1O[C@H](CO)[C@@H](O)[C@H](O)[C@H]1O)C(N)=O)C(C)C)C(C)C` [CRA 3012], on human VPAC1 receptor, the Emax is 118%, the “Receptor selectivity ratio VPAC1/PAC1” value is reported as 2.62 and the EC50 was determined as 214 nM. Further, on human VPAC2 receptor, the EC50 is 1330 nM, the Emax is 107%, the “Receptor selectivity ratio VPAC2/PAC1” value was found to be 16.30 and the “Receptor selectivity ratio VPAC2/VPAC1” value worked out at 6.22. On human PAC1 receptor, this molecule showed an EC50 of 81.7 nM and an Emax of 80%.
`CCC[C@H](NC(=O)[C@H](CCC(N)=O)NC(=O)[C@H](CCCCN)NC(=O)[C@H](CCCNC(=N)N)NC(=O)[C@H](Cc1ccc(O)cc1)NC(=O)[C@H](CCCNC(=N)N)NC(=O)[C@H](CO)NC(=O)[C@H](Cc1ccc(O)cc1)NC(=O)[C@H](CO)NC(=O)[C@H](CC(=O)O)NC(=O)[C@@H](NC(=O)[C@H](Cc1ccccc1)NC(=O)[C@H](C)NC(=O)CNC(=O)[C@H](CC(=O)O)NC(=O)[C@@H](CO)NC(=O)[C@@H](N)Cc1c[nH]cn1)[C@@H](C)O)C(=O)N[C@@H](C)C(=O)N[C@H](C(=O)N[C@@H](CCCCN)C(=O)N[C@@H](CCCCN)C(=O)N[C@@H](Cc1ccc(O)cc1)C(=O)N[C@@H](CC(C)C)C(=O)N[C@@H](C)C(=O)N[C@@H](C)C(=O)N[C@H](C(=O)N[C@@H](CC(C)C)C(=O)N[C@@H](CO[C@@H]1O[C@H](CO)[C@@H](O)[C@H](O)[C@H]1O)C(N)=O)C(C)C)C(C)C` [CRA 3014]: on human VPAC1 receptor, the Emax was 122%, the “Receptor selectivity ratio VPAC1/PAC1” value stood at 0.64 and the EC50 was 132 nM. Also, on human VPAC2 receptor, a half-maximal response (EC50) required 2650 nM, the Emax came out at 122%, the “Receptor selectivity ratio VPAC2/PAC1” value is 12.95 and the “Receptor selectivity ratio VPAC2/VPAC1” value is on record as 20.11. At human PAC1 receptor, this molecule gave an EC50 of 205 nM and an Emax of 79%.
On to `CCC[C@H](NC(=O)CNC(=O)[C@H](CC(=O)O)NC(=O)[C@@H](CO)NC(=O)[C@@H](N)Cc1c[nH]cn1)C(=O)N[C@@H](Cc1ccccc1)C(=O)N[C@H](C(=O)N[C@@H](CC(=O)O)C(=O)N[C@@H](CO)C(=O)N[C@@H](Cc1ccc(O)cc1)C(=O)N[C@@H](CO)C(=O)N[C@@H](CCCNC(=N)N)C(=O)N[C@@H](Cc1ccc(O)cc1)C(=O)N[C@@H](CCCNC(=N)N)C(=O)N[C@@H](CCCCN)C(=O)N[C@@H](CCC(N)=O)C(=O)N[C@@H](CCC)C(=O)N[C@@H](C)C(=O)N[C@H](C(=O)N[C@@H](CCCCN)C(=O)N[C@@H](CCCCN)C(=O)N[C@@H](Cc1ccc(O)cc1)C(=O)N[C@@H](CC(C)C)C(=O)N[C@@H](C)C(=O)N[C@@H](C)C(=O)N[C@H](C(=O)N[C@@H](CC(C)C)C(=O)N[C@@H](CO[C@@H]1O[C@H](CO)[C@@H](O)[C@H](O)[C@H]1O)C(N)=O)C(C)C)C(C)C)[C@@H](C)O` [CRA 3016], for which, on human VPAC1 receptor, the Emax is 109%, the “Receptor selectivity ratio VPAC1/PAC1” value is 1.13 and the EC50 turned out to be 28.6 nM. In addition, on human VPAC2 receptor, the EC50 worked out at 291 nM, the Emax was 105%, the “Receptor selectivity ratio VPAC2/PAC1” value came out at 11.46 and the “Receptor selectivity ratio VPAC2/VPAC1” value is given as 10.17. At human PAC1 receptor, the EC50 turned out to be 25.4 nM and the Emax was 93%.
As for `[2H]C([2H])([2H])C([2H])(C([2H])([2H])[2H])[C@]([2H])(NC(=O)[C@H](C)NC(=O)[C@H](C)NC(=O)[C@H](CC(C)C)NC(=O)[C@H](Cc1ccc(O)cc1)NC(=O)[C@H](CCCCN)NC(=O)[C@H](CCCCN)NC(=O)[C@@H](NC(=O)[C@H](C)NC(=O)[C@H](CC(C)C)NC(=O)[C@H](CCC(N)=O)NC(=O)[C@H](CCCCN)NC(=O)[C@H](CCCNC(=N)N)NC(=O)[C@H](Cc1ccc(O)cc1)NC(=O)[C@H](CCCNC(=N)N)NC(=O)[C@H](CO)NC(=O)[C@H](Cc1ccc(O)cc1)NC(=O)[C@H](CO)NC(=O)[C@H](CC(=O)O)NC(=O)[C@@H](NC(=O)[C@H](Cc1ccccc1)NC(=O)[C@@H](NC(=O)CNC(=O)[C@H](CC(=O)O)NC(=O)[C@H](CO)NC(=O)[C@@H](N)Cc1c[nH]cn1)[C@@H](C)CC)[C@@H](C)O)C(C)C)C(=O)N[C@@H](CC(C)C)C(=O)N[C@@H](CO[C@@H]1O[C@H](CO)[C@@H](O[C@@H]2O[C@H](CO)[C@@H](O)[C@H](O)[C@H]2O)[C@H](O)[C@H]1O)C(N)=O` [Compound 2LS98Cell], at human VPAC1 receptor, the Emax was 93%, the “Receptor selectivity ratio VPAC1/PAC1” value is 0.62 and the EC50 was determined as 0.52 nM. Also, on human VPAC2 receptor, the EC50 was determined as 55.6 nM, the Emax amounted to 91%, the “Receptor selectivity ratio VPAC2/PAC1” value amounted to 66.19 and the “Receptor selectivity ratio VPAC2/VPAC1” value came to 106.92. Also, at human PAC1 receptor, it took 0.84 nM to reach a half-maximal effect (EC50) and the Emax is 92%.
